# Calls of active or inactive are those of the source.
# How the values were obtained:
# [1] = target: T1, Eukaryotic translation initiation factor 2-alpha kinase 3 (Homo sapiens, UniProt Q9NZJ5); experiment: Dose response cell-based high-throughput screening assay to measure PERK inhibition. [Related pubchem assays: 1416 ]; type: functional
# T1 sequence (Q9NZJ5 whole entry): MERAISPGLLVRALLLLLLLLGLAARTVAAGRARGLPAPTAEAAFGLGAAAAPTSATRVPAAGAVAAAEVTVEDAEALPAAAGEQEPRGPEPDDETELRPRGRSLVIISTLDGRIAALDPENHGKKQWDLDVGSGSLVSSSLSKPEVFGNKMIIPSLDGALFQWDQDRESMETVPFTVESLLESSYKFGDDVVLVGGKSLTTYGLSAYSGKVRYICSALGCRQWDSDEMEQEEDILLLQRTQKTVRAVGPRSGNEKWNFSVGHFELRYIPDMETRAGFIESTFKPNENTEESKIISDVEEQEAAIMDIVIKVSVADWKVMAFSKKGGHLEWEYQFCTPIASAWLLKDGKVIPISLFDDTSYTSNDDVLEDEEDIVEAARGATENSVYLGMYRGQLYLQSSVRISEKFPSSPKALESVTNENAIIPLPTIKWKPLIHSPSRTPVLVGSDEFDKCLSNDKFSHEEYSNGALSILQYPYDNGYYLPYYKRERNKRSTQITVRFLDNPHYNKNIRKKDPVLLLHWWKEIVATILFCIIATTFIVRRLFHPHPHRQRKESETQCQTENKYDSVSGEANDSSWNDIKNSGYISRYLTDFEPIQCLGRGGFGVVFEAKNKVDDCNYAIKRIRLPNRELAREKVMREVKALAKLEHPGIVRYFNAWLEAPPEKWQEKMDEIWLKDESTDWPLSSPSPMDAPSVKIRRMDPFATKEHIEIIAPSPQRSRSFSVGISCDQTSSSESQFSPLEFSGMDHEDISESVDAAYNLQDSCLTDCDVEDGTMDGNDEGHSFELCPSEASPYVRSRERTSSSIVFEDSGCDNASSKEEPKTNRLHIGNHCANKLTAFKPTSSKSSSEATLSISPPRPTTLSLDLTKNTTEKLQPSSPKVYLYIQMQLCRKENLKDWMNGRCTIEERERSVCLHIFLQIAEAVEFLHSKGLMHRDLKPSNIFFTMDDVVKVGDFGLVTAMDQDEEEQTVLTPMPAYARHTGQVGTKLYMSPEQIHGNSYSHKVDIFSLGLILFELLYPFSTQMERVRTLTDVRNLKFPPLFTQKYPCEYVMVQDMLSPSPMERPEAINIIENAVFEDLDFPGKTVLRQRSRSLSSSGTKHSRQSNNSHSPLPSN
# [2] = target: T1, Eukaryotic translation initiation factor 2-alpha kinase 3; experiment: Counterscreen assay for PERK inhibitors: Dose response cell-based high throughput screening assay to measure inhibition of PERK at 6 hours. [Related pubchem assays: 1522, 1416 ]; type: functional
# [3] = microbe, parasite or virus in culture; type: functional; details: Mycobacterium tuberculosis
# [4] = target: T2, Alkaline phosphatase, tissue-nonspecific isozyme (Homo sapiens, UniProt P05186)
# T2 sequence (P05186 whole entry): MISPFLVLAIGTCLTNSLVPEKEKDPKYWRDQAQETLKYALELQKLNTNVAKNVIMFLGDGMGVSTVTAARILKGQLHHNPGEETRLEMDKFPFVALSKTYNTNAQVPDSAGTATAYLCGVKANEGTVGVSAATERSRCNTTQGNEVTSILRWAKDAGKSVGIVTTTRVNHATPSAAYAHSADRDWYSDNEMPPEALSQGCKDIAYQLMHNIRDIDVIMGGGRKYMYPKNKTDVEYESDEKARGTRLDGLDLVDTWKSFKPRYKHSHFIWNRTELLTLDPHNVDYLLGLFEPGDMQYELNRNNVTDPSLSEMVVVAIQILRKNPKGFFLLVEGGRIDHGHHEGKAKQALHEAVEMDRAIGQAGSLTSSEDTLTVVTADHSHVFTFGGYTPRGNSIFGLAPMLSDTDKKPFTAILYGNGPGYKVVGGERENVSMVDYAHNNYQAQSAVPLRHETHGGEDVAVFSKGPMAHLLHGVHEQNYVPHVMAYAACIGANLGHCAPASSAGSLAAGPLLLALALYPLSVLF
# [5] = target: Voltage-dependent T-type calcium channel subunit alpha-1H (Homo sapiens, UniProt O95180); type: functional;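 also: channel activity triggered by adding a high calcium stimulation buffer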
# Sequence of Voltage-dependent T-type calcium channel subunit alpha-1H (O95180 whole entry): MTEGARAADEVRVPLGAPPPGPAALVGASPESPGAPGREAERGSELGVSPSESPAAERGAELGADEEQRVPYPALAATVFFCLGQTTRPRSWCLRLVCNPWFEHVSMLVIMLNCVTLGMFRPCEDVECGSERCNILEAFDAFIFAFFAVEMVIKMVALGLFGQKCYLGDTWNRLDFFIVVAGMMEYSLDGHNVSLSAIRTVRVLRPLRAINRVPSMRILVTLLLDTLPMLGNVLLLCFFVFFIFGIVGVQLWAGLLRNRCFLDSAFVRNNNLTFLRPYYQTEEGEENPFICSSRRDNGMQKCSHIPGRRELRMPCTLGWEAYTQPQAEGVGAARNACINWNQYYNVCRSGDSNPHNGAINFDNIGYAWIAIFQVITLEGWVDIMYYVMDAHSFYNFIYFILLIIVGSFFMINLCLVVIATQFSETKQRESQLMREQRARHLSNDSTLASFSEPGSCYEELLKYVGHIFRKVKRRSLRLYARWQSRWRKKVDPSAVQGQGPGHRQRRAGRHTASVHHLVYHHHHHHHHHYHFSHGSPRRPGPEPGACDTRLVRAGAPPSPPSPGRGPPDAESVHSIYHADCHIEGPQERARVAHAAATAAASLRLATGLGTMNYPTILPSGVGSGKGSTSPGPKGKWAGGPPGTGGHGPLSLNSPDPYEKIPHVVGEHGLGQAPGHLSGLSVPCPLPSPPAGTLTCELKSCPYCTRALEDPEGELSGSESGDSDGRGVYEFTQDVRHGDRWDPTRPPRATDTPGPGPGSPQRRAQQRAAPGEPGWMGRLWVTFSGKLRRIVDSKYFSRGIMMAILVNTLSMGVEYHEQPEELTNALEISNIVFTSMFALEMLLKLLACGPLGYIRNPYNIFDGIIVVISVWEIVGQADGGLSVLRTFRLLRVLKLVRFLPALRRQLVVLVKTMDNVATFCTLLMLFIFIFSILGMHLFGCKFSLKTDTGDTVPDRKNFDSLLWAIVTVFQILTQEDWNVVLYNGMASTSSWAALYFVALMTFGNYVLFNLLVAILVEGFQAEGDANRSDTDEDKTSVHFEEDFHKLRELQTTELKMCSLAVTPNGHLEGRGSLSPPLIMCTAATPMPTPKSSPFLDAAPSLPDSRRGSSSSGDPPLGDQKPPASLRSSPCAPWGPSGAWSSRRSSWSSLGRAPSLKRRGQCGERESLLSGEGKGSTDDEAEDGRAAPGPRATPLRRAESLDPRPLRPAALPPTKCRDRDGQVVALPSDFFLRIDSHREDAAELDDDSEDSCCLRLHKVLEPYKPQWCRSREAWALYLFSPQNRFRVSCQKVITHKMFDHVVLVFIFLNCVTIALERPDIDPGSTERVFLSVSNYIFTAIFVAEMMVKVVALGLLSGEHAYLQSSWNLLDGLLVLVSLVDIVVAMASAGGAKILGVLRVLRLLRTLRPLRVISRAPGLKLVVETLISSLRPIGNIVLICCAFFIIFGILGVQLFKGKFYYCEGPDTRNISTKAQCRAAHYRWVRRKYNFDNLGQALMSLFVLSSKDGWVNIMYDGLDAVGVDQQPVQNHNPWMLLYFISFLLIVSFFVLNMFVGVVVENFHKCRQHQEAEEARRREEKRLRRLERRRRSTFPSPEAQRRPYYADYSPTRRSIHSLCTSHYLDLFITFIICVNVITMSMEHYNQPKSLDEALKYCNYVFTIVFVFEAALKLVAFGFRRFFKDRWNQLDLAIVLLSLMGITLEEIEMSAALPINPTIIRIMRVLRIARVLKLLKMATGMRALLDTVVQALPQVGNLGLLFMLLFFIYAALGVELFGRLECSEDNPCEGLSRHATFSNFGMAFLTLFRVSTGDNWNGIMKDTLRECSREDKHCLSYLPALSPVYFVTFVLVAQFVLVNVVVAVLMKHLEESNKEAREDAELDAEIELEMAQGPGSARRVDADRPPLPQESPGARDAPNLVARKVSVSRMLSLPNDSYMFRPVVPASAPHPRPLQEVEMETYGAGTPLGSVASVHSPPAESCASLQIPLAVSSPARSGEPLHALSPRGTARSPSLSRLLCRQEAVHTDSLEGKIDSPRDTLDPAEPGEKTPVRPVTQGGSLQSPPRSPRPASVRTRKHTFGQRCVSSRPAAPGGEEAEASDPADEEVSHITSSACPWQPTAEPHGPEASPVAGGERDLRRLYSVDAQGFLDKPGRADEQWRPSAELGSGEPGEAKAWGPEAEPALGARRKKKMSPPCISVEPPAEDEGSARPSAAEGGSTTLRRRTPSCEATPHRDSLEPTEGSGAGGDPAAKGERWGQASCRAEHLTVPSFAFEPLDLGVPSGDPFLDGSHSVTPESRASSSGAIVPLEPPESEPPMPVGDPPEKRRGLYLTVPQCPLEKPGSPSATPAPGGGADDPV
# [6] = Luminescence Cell-Based Dose Retest to Confirm Inhibitors of Cancer Stem Cells. [Related pubchem assays (depositor defined):AID2717, AID2721]; type: functional; details: Homo sapiens
# [7] = target: T3, Scavenger receptor class B member 1 (Mus musculus, UniProt Q61009); experiment: inhibitors of SR-BI mediated HDL lipid uptake, dose response, ldlA[mSR-BI] cells, fluorescence, cherry pick (AID 493194); type: functional, cell-based;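 also: cellular uptake of fluorescent DiI-labeled HDL measured as cell fluorescence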
# T3 sequence (Q61009 whole entry): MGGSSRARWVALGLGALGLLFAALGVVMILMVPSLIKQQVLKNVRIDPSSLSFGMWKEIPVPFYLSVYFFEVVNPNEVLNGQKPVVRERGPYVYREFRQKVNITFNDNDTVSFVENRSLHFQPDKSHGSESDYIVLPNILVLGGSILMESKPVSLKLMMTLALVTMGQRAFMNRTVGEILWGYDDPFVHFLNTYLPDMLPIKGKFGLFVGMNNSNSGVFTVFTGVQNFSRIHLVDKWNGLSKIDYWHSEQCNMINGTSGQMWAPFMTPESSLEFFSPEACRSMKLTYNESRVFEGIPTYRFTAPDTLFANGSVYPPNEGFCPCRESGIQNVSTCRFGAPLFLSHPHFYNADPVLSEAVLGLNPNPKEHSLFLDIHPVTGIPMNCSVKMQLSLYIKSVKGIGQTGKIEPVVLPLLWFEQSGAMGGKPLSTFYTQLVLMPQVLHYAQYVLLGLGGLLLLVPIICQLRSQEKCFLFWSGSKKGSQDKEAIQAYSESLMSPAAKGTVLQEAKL
# [8] = target: Melanin-concentrating hormone receptor 1 (Homo sapiens, UniProt Q99705); experiment: Fluorescence-based counterscreen for antagonists of the G-protein coupled receptor 7 (GPR7): cell-based high throughput dose response assay to identify antagonists of the melanin-concentrating hormone receptor 1 (MCHR1).; type: functional
# Sequence of Melanin-concentrating hormone receptor 1 (Q99705 whole entry): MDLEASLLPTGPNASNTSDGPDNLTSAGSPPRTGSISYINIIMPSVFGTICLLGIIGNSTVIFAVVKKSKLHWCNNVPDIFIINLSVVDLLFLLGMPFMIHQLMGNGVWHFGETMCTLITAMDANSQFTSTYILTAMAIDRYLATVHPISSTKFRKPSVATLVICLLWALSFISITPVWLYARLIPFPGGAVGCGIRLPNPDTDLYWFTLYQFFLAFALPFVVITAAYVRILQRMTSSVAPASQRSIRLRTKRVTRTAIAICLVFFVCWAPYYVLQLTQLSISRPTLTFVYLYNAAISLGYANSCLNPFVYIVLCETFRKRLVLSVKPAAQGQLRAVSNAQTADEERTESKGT
# [9] = target: T4, Neuropeptides B/W receptor type 1 (Homo sapiens, UniProt P48145); experiment: Fluorescence-based dose response cell-based high throughput screening assay to identify antagonists of the G-protein coupled receptor 7 (GPR7). [Related pubchem assays: 1952 (Screening assay (GPR7 antagonists).), 1880 (Summary AID.)]; type: functional
# T4 sequence (P48145 whole entry): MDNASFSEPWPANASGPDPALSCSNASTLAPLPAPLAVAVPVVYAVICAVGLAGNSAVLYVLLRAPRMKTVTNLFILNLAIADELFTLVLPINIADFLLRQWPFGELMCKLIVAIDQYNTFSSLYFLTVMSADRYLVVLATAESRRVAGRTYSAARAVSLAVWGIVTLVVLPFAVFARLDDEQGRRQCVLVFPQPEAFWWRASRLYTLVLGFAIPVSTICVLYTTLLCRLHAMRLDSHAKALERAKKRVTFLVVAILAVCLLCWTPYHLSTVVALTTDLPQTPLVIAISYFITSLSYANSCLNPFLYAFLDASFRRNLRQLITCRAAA
# [10] = target: Lysosomal acid glucosylceramidase (Homo sapiens, UniProt P04062); experiment: Dose response cell-based high throughput screening assay to identify enhancers of beta-glucosidase activity. [Related pubchem assays: 784 ]; type: functional
# Sequence of Lysosomal acid glucosylceramidase (P04062 whole entry): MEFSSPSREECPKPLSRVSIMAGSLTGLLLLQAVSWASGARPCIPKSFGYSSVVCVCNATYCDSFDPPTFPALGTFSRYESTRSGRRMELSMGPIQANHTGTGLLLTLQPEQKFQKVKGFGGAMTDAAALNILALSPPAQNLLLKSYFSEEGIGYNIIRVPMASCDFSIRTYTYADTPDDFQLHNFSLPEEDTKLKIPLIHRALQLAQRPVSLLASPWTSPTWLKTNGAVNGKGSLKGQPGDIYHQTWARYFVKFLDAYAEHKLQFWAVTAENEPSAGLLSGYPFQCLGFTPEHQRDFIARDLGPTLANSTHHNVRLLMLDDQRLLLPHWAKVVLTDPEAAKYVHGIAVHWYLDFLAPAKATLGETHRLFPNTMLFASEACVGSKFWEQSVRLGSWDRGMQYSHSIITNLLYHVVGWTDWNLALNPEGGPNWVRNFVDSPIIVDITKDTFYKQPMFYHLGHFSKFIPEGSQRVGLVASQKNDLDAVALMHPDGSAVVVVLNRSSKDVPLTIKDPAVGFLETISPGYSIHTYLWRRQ
# [11] = THP-1 cell cytotoxicity, dose response, cytotoxicity control for Vif-APOBEC3G degradation inhibitor project, THP-1 cells (AID 1117359); type: functional; details: Human immunodeficiency virus 1, THP-1
# [12] = cytotoxicity in HEK-293T cells, dose response, cytotoxicity control for BCR NF-kB inhibitor project, luminescence, B-cell screen hits (AID 489021); type: functional, cell-based;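 also: HEK-293T cells carrying an NF-kB luciferase reporter; cells exposed to compound for about 14 hours before viability readout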
# [13] = target: Polyadenylate-binding protein 1 (Homo sapiens, UniProt P11940); experiment: PABP poly(A) RNA binding inhibitors, primary screen, biochemical, fluorescence polarization, uHTS (AID 2014)
# Sequence of Polyadenylate-binding protein 1 (P11940 whole entry): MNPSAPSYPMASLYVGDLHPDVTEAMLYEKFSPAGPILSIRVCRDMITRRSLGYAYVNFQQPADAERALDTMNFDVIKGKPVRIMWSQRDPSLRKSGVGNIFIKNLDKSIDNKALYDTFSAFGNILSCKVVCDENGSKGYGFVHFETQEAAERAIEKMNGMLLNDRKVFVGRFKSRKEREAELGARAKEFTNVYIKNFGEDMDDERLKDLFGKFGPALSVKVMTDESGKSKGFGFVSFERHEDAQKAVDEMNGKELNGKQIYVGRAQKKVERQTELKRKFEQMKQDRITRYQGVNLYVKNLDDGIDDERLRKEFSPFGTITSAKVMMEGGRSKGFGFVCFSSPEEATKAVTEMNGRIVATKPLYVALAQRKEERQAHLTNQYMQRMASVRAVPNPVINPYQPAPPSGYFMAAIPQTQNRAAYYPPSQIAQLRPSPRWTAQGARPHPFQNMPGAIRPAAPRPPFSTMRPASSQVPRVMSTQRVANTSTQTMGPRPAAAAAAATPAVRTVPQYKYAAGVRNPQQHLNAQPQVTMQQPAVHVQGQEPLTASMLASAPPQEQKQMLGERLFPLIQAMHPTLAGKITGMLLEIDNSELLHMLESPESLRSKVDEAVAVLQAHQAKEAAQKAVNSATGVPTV
# [14] = target: Eukaryotic translation initiation factor 4H (Homo sapiens, UniProt Q15056); experiment: human eIF4H binding inhibitors, primary screen, translation initiation inhibitor project, biochemical, uHTS, fluorescence polarization (AID 2012)
# [15] = target: DNA dC->dU-editing enzyme APOBEC-3G (Homo sapiens, UniProt Q9HC16); type: functional;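 also: Dose-response counterscreen measuring inhibition of APOBEC3G DNA deaminase activity, run while confirming APOBEC3A inhibitors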
# Sequence of DNA dC->dU-editing enzyme APOBEC-3G (Q9HC16 whole entry): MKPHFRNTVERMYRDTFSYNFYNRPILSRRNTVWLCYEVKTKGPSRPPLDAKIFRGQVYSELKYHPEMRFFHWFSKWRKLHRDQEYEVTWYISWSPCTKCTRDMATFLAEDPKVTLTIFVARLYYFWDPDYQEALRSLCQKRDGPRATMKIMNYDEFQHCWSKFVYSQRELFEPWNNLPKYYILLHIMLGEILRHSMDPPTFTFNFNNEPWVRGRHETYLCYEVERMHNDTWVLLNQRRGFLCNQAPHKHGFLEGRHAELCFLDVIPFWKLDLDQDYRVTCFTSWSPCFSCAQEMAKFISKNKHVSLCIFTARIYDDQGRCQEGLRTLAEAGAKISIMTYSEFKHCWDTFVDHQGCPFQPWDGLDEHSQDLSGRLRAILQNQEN
# [16] = target: T5, Calpain-2 catalytic subunit (Sus scrofa, UniProt P43367); experiment: pig calpain II inhibitor potency, dose response, biochemical, fluorogenic peptide substrate (AID 1420); type: functional
# T5 sequence (P43367 whole entry): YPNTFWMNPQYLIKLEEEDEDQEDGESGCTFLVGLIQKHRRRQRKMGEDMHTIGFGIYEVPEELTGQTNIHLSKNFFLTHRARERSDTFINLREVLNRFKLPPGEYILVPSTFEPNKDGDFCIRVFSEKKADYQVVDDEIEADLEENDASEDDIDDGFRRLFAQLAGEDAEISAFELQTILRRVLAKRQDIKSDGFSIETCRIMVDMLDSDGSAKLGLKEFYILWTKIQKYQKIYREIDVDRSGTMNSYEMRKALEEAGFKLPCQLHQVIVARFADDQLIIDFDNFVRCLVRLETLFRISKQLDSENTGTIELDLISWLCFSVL
# [17] = target: DNA dC->dU-editing enzyme APOBEC-3A (Homo sapiens, UniProt P31941); experiment: Dose Response confirmation of small molecule APOBEC3A DNA Deaminase Inhibitors via a fluorescence-based single-stranded DNA deaminase assay. [Related pubchem assays (depositor defined):AID493011, AID493024]; type: functional
# Sequence of DNA dC->dU-editing enzyme APOBEC-3A (P31941 whole entry): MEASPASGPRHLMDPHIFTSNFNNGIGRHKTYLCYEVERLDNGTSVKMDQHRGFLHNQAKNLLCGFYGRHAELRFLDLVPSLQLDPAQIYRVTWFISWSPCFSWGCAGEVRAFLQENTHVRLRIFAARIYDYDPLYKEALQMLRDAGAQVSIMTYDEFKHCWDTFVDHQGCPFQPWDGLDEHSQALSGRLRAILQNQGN
# Hexokinase HKDC1 = target: T6, Hexokinase HKDC1 (Homo sapiens, UniProt Q2TB90); experiment: HKDC1 hexokinase inhibitors, dose response, biochemical, W721R variant (AID 504729); type: functional
# T6 sequence (Q2TB90 whole entry): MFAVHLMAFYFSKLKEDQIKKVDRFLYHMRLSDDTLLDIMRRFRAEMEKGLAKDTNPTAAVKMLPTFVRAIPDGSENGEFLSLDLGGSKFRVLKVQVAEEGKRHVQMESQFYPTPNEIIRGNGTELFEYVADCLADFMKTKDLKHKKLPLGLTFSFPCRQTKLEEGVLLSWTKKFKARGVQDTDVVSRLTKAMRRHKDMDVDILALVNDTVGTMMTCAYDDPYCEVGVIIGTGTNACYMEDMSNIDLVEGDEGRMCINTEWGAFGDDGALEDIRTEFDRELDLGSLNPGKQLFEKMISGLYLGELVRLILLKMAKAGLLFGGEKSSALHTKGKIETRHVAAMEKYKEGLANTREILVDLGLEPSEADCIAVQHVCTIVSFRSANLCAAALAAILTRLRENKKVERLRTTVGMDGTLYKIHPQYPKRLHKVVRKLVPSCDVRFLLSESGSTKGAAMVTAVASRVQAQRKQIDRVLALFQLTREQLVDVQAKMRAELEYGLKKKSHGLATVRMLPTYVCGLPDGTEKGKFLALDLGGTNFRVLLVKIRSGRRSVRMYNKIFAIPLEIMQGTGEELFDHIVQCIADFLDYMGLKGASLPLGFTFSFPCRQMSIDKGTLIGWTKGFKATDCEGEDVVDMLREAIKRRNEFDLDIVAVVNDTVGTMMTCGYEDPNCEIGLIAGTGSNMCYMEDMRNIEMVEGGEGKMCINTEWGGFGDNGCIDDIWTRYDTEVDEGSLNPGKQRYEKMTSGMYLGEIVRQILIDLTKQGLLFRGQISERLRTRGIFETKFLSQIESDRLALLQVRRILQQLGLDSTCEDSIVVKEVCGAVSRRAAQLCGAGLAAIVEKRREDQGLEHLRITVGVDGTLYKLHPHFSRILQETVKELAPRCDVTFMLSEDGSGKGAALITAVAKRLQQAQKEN
# [18] = cytotoxicity in MIN6 insulinoma cells, dose response, cytotoxicity control, cell-based, mouse insulinoma (AID 2122); type: functional;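 also: confirmatory high-throughput counterscreen run to flag cytotoxic compounds; mouse MIN-6 beta cells carrying an insulin promoter eGFP reporter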
# [19] = insulin promoter down-regulators in MIN6 cells, imaging, high-content screening, mouse beta cells (AID 1628); type: functional
compound,measurement,setting,value
O=C(O)Cn1cnc2c(S)ncnc21,EC50,[1],> 55.7 µM (not active)
same,EC50,[2],> 55.7 µM (not active)
COc1ccc(-c2nc3ccccn3c2CN2CCN(c3ccccc3F)CC2)cc1,CC50,[3],> 40 µM (active)
same,EC50,[4],69.1 µM (not active)
COc1ccc2c(c1)c(=O)oc1cc(O)ccc12,EC50,[1],> 55.7 µM (not active)
same,EC50,[2],> 55.7 µM (not active)
Cc1ccccc1OCC(=O)N(Cc1nc(-c2ccccc2)no1)C(C)C,EC50,[5],5.63 µM (active)
C=CCCC(=O)Nc1nc(C)c(-c2csc(Nc3ccc(Cl)cc3)n2)s1,AC50,[6],2.6 µM (active)
same,AC50,[7],7.3 µM (active)
CC(C)(CO)NCc1c(OCc2ccc(Cl)cc2)ccc2ccccc12,IC50,[8],9.31 µM (active)
same,IC50,[9],7.85 µM (active)
Cn1c(Cc2ccccc2)nnc1SCC(=O)Nc1ccccc1N1CCOCC1,EC50,[10],> 50 µM (not active)
c1ccc(C(c2nnnn2Cc2ccco2)N2CCN(c3nc4ccccc4s3)CC2)cc1 (stereo not drawn),EC50,[5],6.65 µM (active)
CCOC(=O)CN1C(=O)CSc2ccccc21,EC50,[10],> 10 µM (not active)
O=C(CCC(=O)NNc1nc2ccccc2c2nc(-c3ccccc3)nn12)NCCCN1CCOCC1,CC50,[11],> 40 µM (active)
same,EC50,[4],70.8 µM (not active)
COc1ccc(NC(=O)CN(C)C(=O)C2(c3ccccc3)CCCC2)cc1,IC50,[12],> 80 µM (inactive)
COc1cc(/C=N\NC(=O)c2ccc(Cl)cc2)ccc1Oc1ccc([N+](=O)[O-])cn1,IC50,[13],9.22 µM (active)
same,IC50,[14],> 100 µM (inactive)
COc1ccc(CCCc2nnc(SCC(=O)Nc3ccc(C)c(C)c3)o2)cc1,IC50,[13],6.61 µM (active)
same,IC50,[14],> 100 µM (inactive)
same,IC50,[15],3.68 µM (active)
same,IC50,[16],< 0.4 µM (not active)
same,IC50,[17],2.18 µM (active)
CCCCNC(=O)c1sc(=S)n2c1[nH]c(=O)c1ccc(C(=O)NCCc3ccc(OC)c(OC)c3)cc12,IC50,Hexokinase HKDC1,35.7 µM (inactive)
N=c1ccn(Cc2ccccc2Cl)cc1,IC50,[12],> 80 µM (inactive)
same,IC50,[18],3.42 µM (active)
same,IC50,[19],3.37 µM (active)

# — ChEMBL document CHEMBL1201862, “PubChem BioAssay data set” (2004)
